Experimental data from patent US12605369B2, “Amido-substituted heterocyclic compounds and methods of use thereof for the treatment of herpes viruses” (Merck Sharp & Dohme LLC, priority 2019, dated 2026).
Read-outs that look alike come from different tables or passages of the source.

Key:
[1] = molecular target: T1, varicella zoster virus DNA polymerase (Varicella-zoster virus, UniProt P09252); experiment: VZV polymerase assay (AlphaLISA, Example 15); type: biochemical; conditions: VZV polymerase 0.4 nM; 30 min pre-incubation; 60 min at 37° C.
T1 construct: made in house; host or cells: SF21 insect cells (baculovirus vector)
Experimental: (§1) CMV and VZW Polymerase Assays
(§2) Human cytomegalovirus and varicella zoster virus DNA polymerases were expressed via baculovirus vector in SF21 cells and purified. Heterodimeric nucleic acid substrate used in the herpesvirus polymerase reactions were generated by annealing a 59-mer template to a 17-mer digoxigenin-labeled primer. Polymerase (HCMV final concentration of 0.2 nM; VZV final concentration of 0.4 nM) was combined with an inhibitor compound or DMSO in assay buffer (10 mM HEPES, pH 7.5, 25 mM KCl, 25 mM NaCl, 5 mM MgCl2, 5% glycerol, 0.67 mg/ml bovine serum albumin, and 1 mM tris(2-carboxyethyl)phosphine)), and this mixture was pre-incubated for 30 minutes at room temperature in 384-well microtiter plates. The polymerization reaction was initiated by the addition of template/primer substrate (final concentration: 1.6 nM) and dNTPs (final concentration: 24 nM dCTP, 24 nMdGTP, 16 nM dATP, 16 nM dTTP, and 0.8 nM biotin-dUTP). After a 60 minute incubation period at 37° C., the reactions were terminated using quench buffer (25 mM HEPES pH 7.5, 100 mM NaCl, 0.25% Tween-20, 12 mM EDTA, and 1 mg/ml bovine serum albumin). Incorporation of biotinylated UTP was detected with 2.5-5 μg/mL anti-DIG AlphaLISA acceptor beads and 5-10 μg/mL streptavidin AlphaLISA donor beads (PerkinElmer). Compound effects were normalized to the window defined by the controls (DMSO only and pre-quenched wells) and were fit using a 4-parameter algorithm to report an IC50.

HSV-2 Strain G = experiment: Viral qPCR assay, HSV-2 (Example 14); type: cell-based; conditions: Strain G in Vero or MRCS cells, 0.004-0.4 pfu/cell, viral genome copy number by qPCR, read-out: HSV2 Cell EC50
Experimental: (§3) MRCS and Vero cells were obtained from ATCC and were maintained at 37° C./5% CO2/90% relative humidity in Minimal Essential Medium with 10% fetal bovine serum, […], 100 units/mL penicillin and 100 ug/mL streptomycin. Assay plates were prepared by dispensing compounds dissolved in DMSO into wells of 384 well collagen-coated plates using an ECHO acoustic dispenser. Each test compound was tested in a 10-point, serial 3-fold dilution. Controls included uninfected cells and infected cells treated only with DMSO. Assays were initiated by mixing selected cells, in suspension, with virus, and dispensing 50 μl/well infected cells to pre-plated compounds. Plates were incubated at 37° C./5% CO2/90% relative humidity for ˜72 hours to permit genomic replication, and infected cells were lysed by the addition of an equal volume of lysis buffer (10 mM Tris-HCl, pH8, 50 mM KCl, 2 mM MgCl2, 0.45% NP-40, 0.45% Tween-20, and 100 μg/mL proteinase K). An aliquot of the lysate was then transferred to a 384-well PCR plate and incubated at 56° C. for 1 hour, and then at 95° C. for 10 minutes. Levels of a viral gene were measured in 10 ul qPCR assays using TaqMan® Gene Expression Master Mix (Applied Biosystems) and an 7900HT Fast Real-Time PCR System with 384-Well Block Module. 7-point, serial 10-fold dilutions of a plasmid standard were run on each plate to generate a standard curve, and genome copies numbers were calculated by plotting experimental Ct onto linear regression of the standard curve. Compound effects on viral genome copy number were normalized to the window defined by the controls. Calculated % effects were fit using a 4-parameter algorithm, and EC50 was reported. • HCMV: Strain AD169 was assayed in MRC-5 cells and was used at 0.05-0.1 pfu/cell. The assays were performed in either growth media or in the same media with 50% fetal bovine serum. Primer-probe set was Thermo Fisher Assay ID=AIFATFK. • HSV-1: Strain F was assayed in Vero or MRCS cells and was used at 0.0005-0.004 pfu/cell in growth medium. Primer-probe set was Thermo Fisher Assay ID=AIBJZIB. • HSV-2: Strain G was assayed in Vero or MRCS cells and was used at 0.004-0.4 pfu/cell in growth medium. Primer-probe set was Thermo Fisher Assay ID=AICSXOJ.

HSV-1 Strain F = experiment: Viral qPCR assay, HSV-1 (Example 14); type: cell-based; conditions: Strain F in Vero or MRCS cells, 0.0005-0.004 pfu/cell, viral genome copy number by qPCR, read-out: HSV1 Cell EC50
Experimental: as §3

HCMV Strain AD169 = experiment: Viral qPCR assay, HCMV (Example 14); type: cell-based
Experimental: as §3

[2] = molecular target: T2, Human cytomegalovirus DNA polymerase (Human cytomegalovirus, UniProt P08546); experiment: CMV polymerase assay (AlphaLISA, Example 15); type: biochemical; conditions: HCMV polymerase 0.2 nM; 30 min pre-incubation; 60 min at 37° C.
T2 construct: made in house; host or cells: SF21 insect cells (baculovirus vector)
Experimental: as §1, §2

[3] = Human alphaherpesvirus 2, Vero, 72 h
[4] = Human alphaherpesvirus 1, Vero, 72 h
[5] = Human betaherpesvirus 5, AD169, MRC5, 72 h, Strain AD169 in MRC-5 cells, 0.05-0.1 pfu/cell, ~72 hours, viral genome copy number by qPCR, growth media or 50% fetal bovine serum, read-out: CMV Cell EC50
[6] = Strain AD169 in MRC-5 cells, 0.05-0.1 pfu/cell, ~72 hours, viral genome copy number by qPCR, growth media or 50% fetal bovine serum, read-out: CMV Cell EC50

T1 sequence (P09252 whole entry): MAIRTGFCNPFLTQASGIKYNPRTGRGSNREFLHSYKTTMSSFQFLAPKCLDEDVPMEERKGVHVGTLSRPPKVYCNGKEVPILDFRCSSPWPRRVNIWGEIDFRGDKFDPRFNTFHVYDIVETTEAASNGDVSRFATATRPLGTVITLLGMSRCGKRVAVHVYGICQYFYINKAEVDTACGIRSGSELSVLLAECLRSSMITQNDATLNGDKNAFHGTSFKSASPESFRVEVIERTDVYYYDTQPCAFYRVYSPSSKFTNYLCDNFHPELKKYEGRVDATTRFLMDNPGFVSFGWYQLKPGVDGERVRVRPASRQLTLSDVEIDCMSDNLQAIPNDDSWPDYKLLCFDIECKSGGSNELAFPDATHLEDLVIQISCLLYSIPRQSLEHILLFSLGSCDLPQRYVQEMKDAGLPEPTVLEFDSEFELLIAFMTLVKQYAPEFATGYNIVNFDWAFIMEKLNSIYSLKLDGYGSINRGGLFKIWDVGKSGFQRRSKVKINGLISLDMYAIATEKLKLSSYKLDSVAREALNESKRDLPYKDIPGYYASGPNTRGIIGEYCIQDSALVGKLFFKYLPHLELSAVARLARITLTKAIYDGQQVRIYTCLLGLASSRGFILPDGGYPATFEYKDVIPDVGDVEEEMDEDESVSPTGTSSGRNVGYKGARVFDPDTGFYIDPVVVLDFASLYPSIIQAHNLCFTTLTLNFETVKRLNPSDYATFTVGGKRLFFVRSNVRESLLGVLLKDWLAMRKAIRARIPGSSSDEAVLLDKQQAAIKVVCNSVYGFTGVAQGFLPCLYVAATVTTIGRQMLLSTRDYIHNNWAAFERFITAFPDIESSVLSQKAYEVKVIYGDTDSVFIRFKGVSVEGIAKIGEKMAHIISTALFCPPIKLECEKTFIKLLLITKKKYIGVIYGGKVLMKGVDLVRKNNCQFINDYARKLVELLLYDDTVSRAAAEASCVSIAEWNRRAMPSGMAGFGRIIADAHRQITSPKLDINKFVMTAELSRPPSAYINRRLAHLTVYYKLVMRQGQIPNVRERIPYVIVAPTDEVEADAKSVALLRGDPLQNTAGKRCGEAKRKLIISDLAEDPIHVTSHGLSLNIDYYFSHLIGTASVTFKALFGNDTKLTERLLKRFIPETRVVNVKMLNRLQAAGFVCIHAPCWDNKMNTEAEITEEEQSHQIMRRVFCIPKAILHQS
T2 sequence (P08546 whole entry): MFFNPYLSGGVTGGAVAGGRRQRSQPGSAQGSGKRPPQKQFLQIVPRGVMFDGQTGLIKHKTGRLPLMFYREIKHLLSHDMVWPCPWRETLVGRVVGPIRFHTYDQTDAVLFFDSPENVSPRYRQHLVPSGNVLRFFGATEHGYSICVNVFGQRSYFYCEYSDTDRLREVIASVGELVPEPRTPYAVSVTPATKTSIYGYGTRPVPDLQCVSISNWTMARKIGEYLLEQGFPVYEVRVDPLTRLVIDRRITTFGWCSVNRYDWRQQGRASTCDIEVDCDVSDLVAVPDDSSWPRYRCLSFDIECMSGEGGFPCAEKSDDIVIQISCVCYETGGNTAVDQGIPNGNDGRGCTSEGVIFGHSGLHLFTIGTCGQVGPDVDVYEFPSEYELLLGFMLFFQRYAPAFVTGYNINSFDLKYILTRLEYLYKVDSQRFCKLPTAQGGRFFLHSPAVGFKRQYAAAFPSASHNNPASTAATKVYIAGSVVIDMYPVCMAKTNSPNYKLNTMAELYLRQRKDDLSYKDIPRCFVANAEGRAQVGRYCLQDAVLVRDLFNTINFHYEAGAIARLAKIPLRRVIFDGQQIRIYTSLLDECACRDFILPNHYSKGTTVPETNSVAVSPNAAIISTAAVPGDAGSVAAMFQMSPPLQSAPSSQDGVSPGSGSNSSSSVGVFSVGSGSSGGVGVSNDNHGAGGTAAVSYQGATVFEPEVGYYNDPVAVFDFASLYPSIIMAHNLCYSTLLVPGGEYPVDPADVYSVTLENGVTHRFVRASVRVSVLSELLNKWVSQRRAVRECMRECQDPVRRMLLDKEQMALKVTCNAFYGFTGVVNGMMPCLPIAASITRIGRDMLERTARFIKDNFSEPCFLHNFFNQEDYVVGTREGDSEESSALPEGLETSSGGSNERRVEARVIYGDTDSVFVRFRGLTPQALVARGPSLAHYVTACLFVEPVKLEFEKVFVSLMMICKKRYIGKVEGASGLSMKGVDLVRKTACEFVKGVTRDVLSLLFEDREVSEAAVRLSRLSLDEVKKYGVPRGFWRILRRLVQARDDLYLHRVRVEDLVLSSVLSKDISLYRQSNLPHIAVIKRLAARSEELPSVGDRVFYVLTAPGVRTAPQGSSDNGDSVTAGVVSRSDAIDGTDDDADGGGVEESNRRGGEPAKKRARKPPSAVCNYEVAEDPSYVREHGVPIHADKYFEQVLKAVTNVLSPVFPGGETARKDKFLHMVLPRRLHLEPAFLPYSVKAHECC

SMILES	IC50 [1] [nM]	EC50 (HSV-2 Strain G; [3]) [nM]	EC50 (HSV-1 Strain F; [4]) [nM]	IC50 [2] [nM]	EC50 (HSV-2 Strain G; ~72 hours) [nM]	EC50 (HSV-1 Strain F; ~72 hours) [nM]	EC50 (HCMV Strain AD169; [5]) [nM]	EC50 (HCMV Strain AD169; Human betaherpesvirus 5, AD169, MRC5, 72 h, read-out: CMV Cell EC50 (nM)) [nM]	EC50 (HCMV Strain AD169; [6]) [nM]
COc1nc(N2CCC(F)(c3ccc(C#N)cc3)C2=O)ccc1C[C@H]1COC(=O)N1 (single isomer, unassigned) [Compound 8]	34	884	958	10	–	–	434	–	–
COc1nc(NC(=O)Cc2ccc(Cl)cc2COCc2ccccc2)ccc1C[C@H]1COC(=O)N1 [Compound 2]	–	–	–	108	–	–	3550	–	–
COc1nc(NC(=O)Cc2ccc(Cl)cc2CO)ccc1C[C@H]1COC(=O)N1 [Compound 3]	–	504	396	12	–	–	178	–	–
COCc1cc(Cl)ccc1CC(=O)Nc1ccc(C[C@H]2COC(=O)N2)c(OC)n1 [Compound 5]	18	318	166	12	–	–	116	–	–
COCc1cc(C#N)ccc1CC(=O)Nc1ccc(C[C@H]2COC(=O)N2)c(OC)n1 [Compound 6]	8	198	152	9	–	–	36	–	–
COc1nc(N2CCN(c3ccc(Cl)cc3)C2=O)ccc1C[C@H]1COC(=O)N1 [Compound 10]	–	291	282	14	–	–	522	–	–
COc1nc(N2CCN(c3ccc(C#N)c(F)c3)C2=O)ccc1C[C@H]1COC(=O)N1 [Compound 11]	–	–	–	30	–	–	–	596	–
COc1nc(NC(=O)N2Cc3ccc(Cl)cc3C2)ccc1C[C@H]1COC(=O)N1 [Compound 12]	4820	–	–	3770	–	–	> 9900	–	–
COc1nc(NC(=O)Cc2ccc(C#N)cc2)ccc1C[C@H]1COC(=O)N1 [Compound 13]	8	191	300	22	–	–	128	–	–
COc1nc(NC(=O)Cc2ccc(C(F)(F)F)c(F)c2)ccc1C[C@H]1COC(=O)N1 [Compound 14]	–	134	281	11	–	–	486	–	–
COc1nc(NC(=O)C2CCc3cc(Cl)ccc32)ccc1C[C@H]1COC(=O)N1 (stereo partly shown) [Compound 17]	–	99	127	23	–	–	133	–	–
COc1nc(NC(=O)C2CCc3cc(Cl)ccc3O2)ccc1C[C@H]1COC(=O)N1 (stereo partly shown) [Compound 18]	1	148	128	1.4	–	–	435	–	–
COc1nc(N2CCC(c3ccc(C#N)cc3)C2=O)ccc1C[C@H]1COC(=O)N1 (stereo partly shown) [Compound 20]	5	132	124	6	–	–	120	–	–
COc1nc(N2CCN(c3ccc(C#N)cc3)C2=O)ccc1C[C@H]1COC(=O)N1 [Compound 21]	–	90	309	29	–	–	369	–	–
COc1nc(N2CCN(Cc3ccc(C#N)cc3)C2=O)ccc1C[C@H]1COC(=O)N1 [Compound 22]	–	100	131	35	–	–	318	–	–
COc1nc(NC(=O)C2CN(C)c3cc(C#N)ccc3O2)ccc1C[C@H]1COC(=O)N1 (stereo partly shown) [Compound 26]	–	–	–	–	73	60	–	–	39
COc1nc(NC(=O)C2CN(C)c3cc(C#N)ccc3O2)ccc1C[C@H]1COC(=O)N1 (stereo partly shown) [Compound 27]	–	–	–	–	12900	62000	–	–	10600

More lines, main results first:

IC50 [1] [nM]	EC50 (HSV-2 Strain G; [3]) [nM]	EC50 (HSV-1 Strain F; [4]) [nM]	IC50 [2] [nM]	EC50 (HSV-2 Strain G; ~72 hours) [nM]	EC50 (HSV-1 Strain F; ~72 hours) [nM]	SMILES	EC50 (HCMV Strain AD169; [5]) [nM]	EC50 (HCMV Strain AD169; Human betaherpesvirus 5, AD169, MRC5, 72 h, read-out: CMV Cell EC50 (nM)) [nM]	EC50 (HCMV Strain AD169; [6]) [nM]
8	523	453	7.5	–	–	COc1nc(NC(=O)Cc2ccc(C#N)cc2F)ccc1C[C@H]1COC(=O)N1 [Compound 15]	83	–	–
7	259	311	10	–	–	COc1nc(NC(=O)C2CCc3cc(C#N)ccc32)ccc1C[C@H]1COC(=O)N1 (stereo partly shown) [Compound 19]	475	–	–
0.4	56	44	0.4	–	–	COc1nc(NC(=O)C2CCc3cc(C#N)ccc3O2)ccc1C[C@H]1COC(=O)N1 (stereo partly shown) [Compound 23]	38	–	–
–	802	381	–	–	–	COc1nc(NC(=O)[C@@H]2Cc3ccc(C#N)cc3CN2C)ccc1C[C@H]1COC(=O)N1 [Compound 28]	175	–	–
–	–	–	–	4990	3510	COc1nc(NC(=O)C2CCc3cc(C#N)ccc3N2C)ccc1C[C@H]1COC(=O)N1 (stereo partly shown) [Compound 29]	–	–	345
–	–	–	–	10700	7440	COc1nc(NC(=O)C2CCc3cc(C#N)ccc3N2C)ccc1C[C@H]1COC(=O)N1 (stereo partly shown) [Compound 30]	–	–	2720
–	–	–	–	48400	70100	COc1nc(NC(=O)C2CCc3cc(C#N)ccc3C2)ccc1C[C@H]1COC(=O)N1 (stereo partly shown) [Compound 31]	–	–	11100
–	–	–	–	173	117	COc1nc(NC(=O)C2CCc3cc(C#N)ccc3C2)ccc1C[C@H]1COC(=O)N1 (stereo partly shown) [Compound 32]	–	–	73
–	–	–	–	11100	8920	COc1nc(NC(=O)C2(C)CCc3cc(C#N)ccc3O2)ccc1C[C@H]1COC(=O)N1 (stereo partly shown) [Compound 33]	–	–	1660
–	–	–	–	> 80200	> 80200	COc1nc(NC(=O)C2(C)CCc3cc(C#N)ccc3O2)ccc1C[C@H]1COC(=O)N1 (stereo partly shown) [Compound 34]	–	–	39800
–	–	–	–	583	252	COc1nc(NC(=O)C2Cc3ccc(C#N)cc3CN2)ccc1C[C@H]1COC(=O)N1 (stereo partly shown) [Compound 35]	–	–	206
–	–	–	–	11100	1940	COc1nc(NC(=O)C2Cc3ccc(C#N)cc3CN2)ccc1C[C@H]1COC(=O)N1 (stereo partly shown) [Compound 36]	–	–	1660
